Structures are written as SMILES.

These results are taken from ChEMBL document CHEMBL1129505, “Time-dependent inactivation of aromatase by 6-alkylandrosta-1,4-diene-3,17-diones. Effects of length and configuration of 6-alkyl group” (J Med Chem, 1996).

For data set [1], the target named is T1, Aromatase (Homo sapiens, UniProt P11511).
T1 sequence (P11511 whole entry): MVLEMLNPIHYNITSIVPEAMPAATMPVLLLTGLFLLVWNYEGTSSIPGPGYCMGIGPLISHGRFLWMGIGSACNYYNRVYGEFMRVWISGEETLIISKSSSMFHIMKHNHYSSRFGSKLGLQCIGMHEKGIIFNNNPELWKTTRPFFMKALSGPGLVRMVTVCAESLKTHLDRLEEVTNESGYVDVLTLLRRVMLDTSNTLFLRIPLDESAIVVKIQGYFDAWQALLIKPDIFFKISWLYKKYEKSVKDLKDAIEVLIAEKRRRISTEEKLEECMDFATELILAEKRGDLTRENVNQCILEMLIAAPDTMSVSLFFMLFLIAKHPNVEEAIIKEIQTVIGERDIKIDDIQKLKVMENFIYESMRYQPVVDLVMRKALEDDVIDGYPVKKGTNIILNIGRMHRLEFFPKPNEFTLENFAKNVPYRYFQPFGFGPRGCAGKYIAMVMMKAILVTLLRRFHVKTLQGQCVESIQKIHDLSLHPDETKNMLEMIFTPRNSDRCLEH
Description: In vitro inhibitory activity against Cytochrome P450 19A1 in human placental microsomes. More on the design: species or system Placenta.

For data set [2], the target named is T1, Aromatase. Description: Catalytic rate constant for time dependent inactivation of Cytochrome P450 19A1; NT= time-dependent inactivation not observed.
Data set [3] addresses T1, Aromatase. Description: Inactivation constant (Ki) for time-dependent inactivation of Cytochrome P450 19A1; NT= time-dependent inactivation not observed.
The target in data set [4] is T1, Aromatase. The data set can be described thus: Apparent inhibition constant (Ki) Cytochrome P450 19A1. As to conditions: read-out: Ki app.
Data set [5] deals with T2, CYP19A1 (aromatase) (Homo sapiens, UniProt P11511).
T2 sequence (P11511 whole entry): T1 sequence (P11511 whole entry)
Description: Catalytic rate constant for time dependent inactivation of Cytochrome P450 19A1.

Data set [6] concerns the target T1, Aromatase. The data set can be described thus: Inactivation constant (Ki) for time-dependent inactivation of Cytochrome P450 19A1.

What is called IC50 is the midpoint of a concentration-inhibition curve. A low value points to inhibition by little substance. For `CCCCCC[C@@H]1CC2C(CCC3(C)C(=O)CCC23)C2(C)C=CC(=O)C=C12` (stereo not given in full), inhibition in data set [1] was half-maximal at 0.076 µM (IC50). In data set [2], the K inact result is listed as “Inactivation not observed”. In addition, the Ki entry in data set [3] is “Inactivation not observed”; in data set [4], 0.008 µM.
One may read the kinact as the rate constant of inactivation at saturating inhibitor. `CCCCCC[C@H]1CC2C(CCC3(C)C(=O)CCC23)C2(C)C=CC(=O)C=C12` (stereo not given in full) displayed a half-maximal inhibitory concentration (IC50) in data set [1] of 0.28 µM. The kinact in data set [5] was 0.000833 s⁻¹. The Ki in data set [6] stood at 0.65 µM; in data set [4] it was 0.025 µM.
In data set [1], `CCCCC[C@H]1CC2C(CCC3(C)C(=O)CCC23)C2(C)C=CC(=O)C=C12` (stereo not given in full) returned a concentration for half-maximal inhibition (IC50) of 0.14 µM. Further, the K inact result in data set [2] is “Inactivation not observed”. Also, the results for the Ki entry in data set [3] and in data set [4] were “Inactivation not observed” and 0.011 µM, respectively.
On to `CCCCCCC[C@H]1CC2C(CCC3(C)C(=O)CCC23)C2(C)C=CC(=O)C=C12` (stereo not given in full), for which the concentration for half-maximal inhibition (IC50) in data set [1] stood at 0.25 µM. Further, the K inact entry in data set [2] is given as “Inactivation not observed”. Also, the Ki result in data set [3] is “Inactivation not observed”; in data set [4] it was 0.02 µM.
As to `CCCCCCC[C@@H]1CC2C(CCC3(C)C(=O)CCC23)C2(C)C=CC(=O)C=C12` (stereo not given in full), in data set [1], the IC50 is 0.06 µM. Moreover, in data set [2], the K inact result is reported as “Inactivation not observed”. Further, the Ki entry in data set [3] is “Inactivation not observed”; in data set [4], 0.0078 µM.
For the molecule `C[C@H]1CC2C(CCC3(C)C(=O)CCC23)C2(C)C=CC(=O)C=C12` (stereo not given in full), in data set [5], the kinact is 0.0008 s⁻¹.
The molecule `CCCCC[C@@H]1CC2C(CCC3(C)C(=O)CCC23)C2(C)C=CC(=O)C=C12` (stereo not given in full) returned an IC50 in data set [1] of 0.054 µM. Further, in data set [2], the K inact entry is given as “Inactivation not observed”. The Ki result in data set [3] is “Inactivation not observed”; in data set [4], 0.005 µM.
As for `CCC[C@@H]1CC2C(CCC3(C)C(=O)CCC23)C2(C)C=CC(=O)C=C12` (stereo not given in full), in data set [1], the half-maximal inhibitory concentration (IC50) turned out to be 0.06 µM. In addition, the K inact entry in data set [2] is given as “Inactivation not observed”. Also, the Ki entry in data set [3] is “Inactivation not observed”; in data set [4], 0.007 µM.
The molecule `CC[C@@H]1CC2C(CCC3(C)C(=O)CCC23)C2(C)C=CC(=O)C=C12` (stereo not given in full) gave a concentration for half-maximal inhibition (IC50) in data set [1] of 0.054 µM. In addition, in data set [2], the K inact entry is on record as “Inactivation not observed”. The Ki entry in data set [3] was “Inactivation not observed”; in data set [4], 0.0047 µM.
Consider `C[C@@H]1CC2C(CCC3(C)C(=O)CCC23)C2(C)C=CC(=O)C=C12` (stereo not given in full), for which the kinact in data set [5] is 0.00102 s⁻¹.
In turn, `CCC[C@H]1CC2C(CCC3(C)C(=O)CCC23)C2(C)C=CC(=O)C=C12` (stereo not given in full) returned an IC50 in data set [1] of 0.27 µM. The kinact in data set [5] was 0.000733 s⁻¹. Also, the Ki in data set [6] was 0.339 µM; in data set [4] it was 0.022 µM.
In the case of `CCCC[C@@H]1CC2C(CCC3(C)C(=O)CCC23)C2(C)C=CC(=O)C=C12` (stereo not given in full), inhibition in data set [1] was half-maximal at 0.18 µM (IC50). Also, in data set [2], the K inact entry is given as “Inactivation not observed”. Further, the Ki entry was “Inactivation not observed” in data set [3] and 0.014 µM in data set [4].
In the case of `CC[C@H]1CC2C(CCC3(C)C(=O)CCC23)C2(C)C=CC(=O)C=C12` (stereo not given in full), the IC50 in data set [1] was 0.25 µM. In data set [5], the kinact was 0.00108 s⁻¹. Further, the Ki in data set [6] was determined as 0.196 µM; in data set [4], 0.019 µM.
On to `CCCC[C@H]1CC2C(CCC3(C)C(=O)CCC23)C2(C)C=CC(=O)C=C12` (stereo not given in full), for which half-maximal inhibition in data set [1] (IC50) required 0.2 µM. Moreover, the kinact in data set [5] is 0.000483 s⁻¹. For the same molecule, the Ki is 0.571 µM in data set [6] and 0.016 µM in data set [4].
